# Results published in patent US11707636B2, “Methods and devices for modulating cellular activity using ultrasound” (priority 2008, dated 2023).
# Entries after “also recorded” stand apart in the source; their conditions may differ.
# Tests used:
# motor cortex [1] = system: motor cortex; set-up: species or system mice; details: mouse, in vivo
# [2] = system: Ca^2+ transients (OGB-1 signals) in neurons; type: cell-based, mice
# [3] = system: Na^+ transients in CA1 pyramidal neurons; type: cell-based, mice
# [4] = system: synaptic vesicle exocytosis in hippocampal slice cultures; type: cell-based, mice
# motor cortex [5] = system: motor cortex; set-up: species or system mice; details: mouse, in vivo; remark: listed apart in the source
smiles,measurement,setting,value
"NC1=N[C@H](O)[C@H]2[C@H]3O[C@]4(O)O[C@@H]([C@@H](O)[C@@]2(N1)[C@@H]4O)[C@]3(O)CO [TTX, tetrodotoxin]",US-evoked cortical activity,motor cortex [1],blocked
same,average presynaptic temporal response of OGB-1 to USW-1,[2],nearly abolishing
same,Na^+ transient response (ΔF/F0 CoroNa Green) to USW-1,[3],blocked
same,exocytosis (spH response) in response to low intensity ultrasound waveforms,[4],nearly abolishes; also recorded: nearly abolishing
same,US-evoked EMG activity / descending corticospinal circuit activity,motor cortex [5],blocks
